Measurements as given in ChEMBL document CHEMBL3885881, “DrugMatrix”.

Species: Rattus norvegicus
Assay: DrugMatrix - Regimen: Daily Repeat
Assay type: toxicity, organism-based, Sprague-Dawley
Design: regimen Daily Repeat, gender Male, age 6-8 weeks
Settings: in vivo, po, route oral GAVAGE, vehicle .5 % CMC; for ABSOLUTE BASOPHIL / ABSOLUTE EOSINOPHIL / ABSOLUTE LYMPHOCYTE / ABSOLUTE MONOCYTE / ABSOLUTE SEGMENTED NEUTROPHIL / BASOPHIL / EOSINOPHIL / ERYTHROCYTE COUNT / HEMATOCRIT / HEMOGLOBIN / LEUKOCYTE COUNT / LYMPHOCYTE / MEAN CORPUSCULAR HEMOGLOBIN / MEAN CORPUSCULAR HEMOGLOBIN CONCENTRATION / MEAN CORPUSCULAR VOLUME / MONOCYTE / NEUTROPHIL / NUCLEATED RED BLOOD CELLS / PLATELET COUNT: tissue Blood; for ALANINE AMINOTRANSFERASE / ALBUMIN / ALKALINE PHOSPHATASE / ASPARTATE AMINOTRANSFERASE / BLOOD UREA NITROGEN / CARBON DIOXIDE / CHLORIDE / CHOLESTEROL / CREATINE PHOSPHOKINASE / CREATININE / GLUCOSE / LACTATE DEHYDROGENASE / LIPASE / PHOSPHORUS / POTASSIUM / SODIUM / TOTAL BILIRUBIN / TOTAL PROTEIN / URIC ACID: tissue Plasma
[1] = 0 mg/kg, 72 h, dose level Control, time 3 day
[2] = 0 mg/kg, 120 h, dose level Control, time 5 day
[3] = 55 mg/kg, 72 h, dose level Low, time 3 day

Question: What does the source list for `CCN1CCCC1CNC(=O)c1cc(S(N)(=O)=O)ccc1OC` (centres undefined) [SULPIRIDE]?
Answer: ABSOLUTE BASOPHIL [1]: 0 CELLS/uL; ABSOLUTE EOSINOPHIL [1]: 0 CELLS/uL; ABSOLUTE LYMPHOCYTE [1]: 12269.67 CELLS/uL; ABSOLUTE MONOCYTE [1]: 160.33 CELLS/uL; ABSOLUTE SEGMENTED NEUTROPHIL [1]: 970 CELLS/uL; BASOPHIL [1]: 0%; EOSINOPHIL [1]: 0%; ERYTHROCYTE COUNT [1]: 5.76 x10E6/uL; HEMATOCRIT [1]: 36.57%; HEMOGLOBIN [1]: 14.22 G/DL; LEUKOCYTE COUNT [1]: 13.4 x10E3/uL; LYMPHOCYTE [1]: 91.67%; MEAN CORPUSCULAR HEMOGLOBIN [1]: 24.67 pg; MEAN CORPUSCULAR HEMOGLOBIN CONCENTRATION [1]: 38.85 G/DL; MEAN CORPUSCULAR VOLUME [1]: 63.52 fL; MONOCYTE [1]: 1.17%; NEUTROPHIL [1]: 7.17%; NUCLEATED RED BLOOD CELLS [1]: 0.33 /100WBC; PLATELET COUNT [1]: 1250.83 x10E3/uL; ALANINE AMINOTRANSFERASE [1]: 49.17 u/L; ALBUMIN [1]: 4.33 G/DL; ALKALINE PHOSPHATASE [1]: 378.5 u/L; ASPARTATE AMINOTRANSFERASE [1]: 82.17 u/L; BLOOD UREA NITROGEN [1]: 15 mg/dL; CARBON DIOXIDE [1]: 34.33 mmol/L; CHLORIDE [1]: 99.17 MEQ/L; CHOLESTEROL [1]: 71.17 mg/dL; CREATINE PHOSPHOKINASE [1]: 258.67 u/L; CREATININE [1]: 0.18 mg/dL; GLUCOSE [1]: 142.67 mg/dL; LACTATE DEHYDROGENASE [1]: 154.33 u/L; LIPASE [1]: 9 u/L; PHOSPHORUS [1]: 11.67 mg/dL; POTASSIUM [1]: 7.13 MEQ/L; SODIUM [1]: 142.22 MEQ/L; TOTAL BILIRUBIN [1]: 0.18 mg/dL; TOTAL PROTEIN [1]: 5.77 G/DL; URIC ACID [1]: 1.55 mg/dL; ABSOLUTE BASOPHIL [2]: 0 CELLS/uL; ABSOLUTE EOSINOPHIL [2]: 23.33 CELLS/uL; ABSOLUTE LYMPHOCYTE [2]: 14943.67 CELLS/uL; ABSOLUTE MONOCYTE [2]: 32 CELLS/uL; ABSOLUTE SEGMENTED NEUTROPHIL [2]: 1084.33 CELLS/uL; BASOPHIL [2]: 0%; EOSINOPHIL [2]: 0.17%; ERYTHROCYTE COUNT [2]: 5.71 x10E6/uL; HEMATOCRIT [2]: 35.28%; HEMOGLOBIN [2]: 14.27 G/DL; LEUKOCYTE COUNT [2]: 16.08 x10E3/uL; LYMPHOCYTE [2]: 93%; MEAN CORPUSCULAR HEMOGLOBIN [2]: 25.02 pg; MEAN CORPUSCULAR HEMOGLOBIN CONCENTRATION [2]: 40.43 G/DL; MEAN CORPUSCULAR VOLUME [2]: 61.82 fL; MONOCYTE [2]: 0.17%; NEUTROPHIL [2]: 6.67%; NUCLEATED RED BLOOD CELLS [2]: 0.33 /100WBC; PLATELET COUNT [2]: 1274 x10E3/uL; ALANINE AMINOTRANSFERASE [2]: 54.17 u/L; ALBUMIN [2]: 4.22 G/DL; ALKALINE PHOSPHATASE [2]: 373.17 u/L; ASPARTATE AMINOTRANSFERASE [2]: 81.83 u/L; BLOOD UREA NITROGEN [2]: 16.67 mg/dL; CARBON DIOXIDE [2]: 30.33 mmol/L; CHLORIDE [2]: 99 MEQ/L; CHOLESTEROL [2]: 71 mg/dL; CREATINE PHOSPHOKINASE [2]: 273.5 u/L; CREATININE [2]: 0.22 mg/dL; GLUCOSE [2]: 141.83 mg/dL; LACTATE DEHYDROGENASE [2]: 153.67 u/L; LIPASE [2]: 10.33 u/L; PHOSPHORUS [2]: 11.38 mg/dL; POTASSIUM [2]: 7.08 MEQ/L; SODIUM [2]: 142.75 MEQ/L; TOTAL BILIRUBIN [2]: 0.18 mg/dL; TOTAL PROTEIN [2]: 6.1 G/DL; URIC ACID [2]: 1.67 mg/dL; ABSOLUTE BASOPHIL [3]: 0 CELLS/uL; ABSOLUTE EOSINOPHIL [3]: 0 CELLS/uL; ABSOLUTE LYMPHOCYTE [3]: 13264 CELLS/uL; ABSOLUTE MONOCYTE [3]: 100 CELLS/uL; ABSOLUTE SEGMENTED NEUTROPHIL [3]: 869.33 CELLS/uL; BASOPHIL [3]: 0%; EOSINOPHIL [3]: 0%; ERYTHROCYTE COUNT [3]: 5.78 x10E6/uL; HEMATOCRIT [3]: 37.4%; HEMOGLOBIN [3]: 14.93 G/DL; LEUKOCYTE COUNT [3]: 14.23 x10E3/uL; LYMPHOCYTE [3]: 93.33%; MEAN CORPUSCULAR HEMOGLOBIN [3]: 25.87 pg; MEAN CORPUSCULAR HEMOGLOBIN CONCENTRATION [3]: 39.97 G/DL; MEAN CORPUSCULAR VOLUME [3]: 64.7 fL; MONOCYTE [3]: 0.67%; NEUTROPHIL [3]: 6%; NUCLEATED RED BLOOD CELLS [3]: 0 /100WBC; PLATELET COUNT [3]: 1265.67 x10E3/uL; ALANINE AMINOTRANSFERASE [3]: 40.33 u/L; ALBUMIN [3]: 4.83 G/DL; ALKALINE PHOSPHATASE [3]: 335 u/L; ASPARTATE AMINOTRANSFERASE [3]: 84.67 u/L; BLOOD UREA NITROGEN [3]: 20.33 mg/dL; CARBON DIOXIDE [3]: 26 mmol/L; CHLORIDE [3]: 104 MEQ/L; CHOLESTEROL [3]: 78.67 mg/dL; CREATINE PHOSPHOKINASE [3]: 305 u/L; CREATININE [3]: 0.26 mg/dL; GLUCOSE [3]: 178.33 mg/dL; LACTATE DEHYDROGENASE [3]: 183 u/L; LIPASE [3]: 11.67 u/L; PHOSPHORUS [3]: 15 mg/dL; POTASSIUM [3]: 6.9 MEQ/L; SODIUM [3]: 149.67 MEQ/L; TOTAL BILIRUBIN [3]: 0.13 mg/dL; TOTAL PROTEIN [3]: 6.7 G/DL; URIC ACID [3]: 2.27 mg/dL
